System: T1, E. coli transhydrogenase (PntA (α) and PntB (β))
T1 construct: full-length wild-type holoenzyme from E. coli membranes, DDM-solubilised, Ni-NTA (tag not described) and SEC; dimer of two identical protomers (alpha2beta2)
Test: spectrophotometric reduction of APAD+ by NADPH, […] nm
Assay type: biochemical, Escherichia coli
Conditions: 100 uM APAD+, 100 uM NADPH, 25 mM HEPES pH 7.5, 50 mM KCl, asolectin, 0.1% DDM, 37 °C; reverse reaction

T1 sequence (P0AB67 whole entry): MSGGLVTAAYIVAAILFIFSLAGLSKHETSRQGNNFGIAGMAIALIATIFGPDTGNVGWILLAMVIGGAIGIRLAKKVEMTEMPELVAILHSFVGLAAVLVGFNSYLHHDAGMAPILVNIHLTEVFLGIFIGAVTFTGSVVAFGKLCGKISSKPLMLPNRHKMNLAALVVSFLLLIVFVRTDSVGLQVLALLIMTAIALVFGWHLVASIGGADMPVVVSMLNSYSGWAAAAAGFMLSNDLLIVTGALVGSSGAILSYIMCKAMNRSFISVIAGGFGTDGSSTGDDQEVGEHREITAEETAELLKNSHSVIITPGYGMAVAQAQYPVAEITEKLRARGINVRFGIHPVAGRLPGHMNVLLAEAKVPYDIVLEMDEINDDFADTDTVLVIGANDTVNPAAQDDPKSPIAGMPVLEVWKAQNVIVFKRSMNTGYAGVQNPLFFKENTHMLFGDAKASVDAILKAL
T1 sequence (P07001 whole entry, further chain): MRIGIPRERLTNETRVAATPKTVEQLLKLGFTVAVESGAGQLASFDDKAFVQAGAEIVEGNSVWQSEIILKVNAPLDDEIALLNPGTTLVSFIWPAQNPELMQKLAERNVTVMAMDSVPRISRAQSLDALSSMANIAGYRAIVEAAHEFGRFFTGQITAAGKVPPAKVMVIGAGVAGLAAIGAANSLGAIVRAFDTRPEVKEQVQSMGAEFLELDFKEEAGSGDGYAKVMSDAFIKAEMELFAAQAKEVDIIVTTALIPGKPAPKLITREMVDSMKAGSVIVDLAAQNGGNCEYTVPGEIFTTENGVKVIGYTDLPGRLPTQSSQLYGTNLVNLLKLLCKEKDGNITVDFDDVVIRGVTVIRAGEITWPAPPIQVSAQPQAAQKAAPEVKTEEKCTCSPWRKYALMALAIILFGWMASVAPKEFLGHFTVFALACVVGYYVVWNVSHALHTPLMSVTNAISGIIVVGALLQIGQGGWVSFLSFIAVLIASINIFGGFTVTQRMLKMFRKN

With `CC(=O)c1ccc[n+]([C@@H]2O[C@H](COP(=O)(O)OP(=O)(O)OC[C@H]3O[C@@H](n4cnc5c(N)ncnc54)[C@H](O)[C@@H]3O)[C@@H](O)[C@H]2O)c1` [APAD^+] the “spectrophotometric reduction of APAD+ by NADPH, 375 nm” value was “reverse transhydrogenase activity of the protein in DDM was measured using the reduction of APAD^+”.

— PMC9529548 (Computational and Structural Biotechnology Journal, 2022)
